According to patent publication US6613793B2 (Dabur Research Foundation, priority 2001, dated 2003):
Read-outs that look alike come from different tables or passages of the source.

How the values were obtained:
Swiss albino mice = format: in vivo; conditions: oral; for safe dose: Swiss albino mice weighing 25 grams; for Mortality: observed 15 days
KB Oral = experiment: MTT cytotoxicity assay, KB; format: cell-based; conditions: Homo sapiens, 24 h, read-out: ED50 values of cytotoxicity
Description: (§1) Briefly, a three day MTT cytotoxicity assay was performed, which is based on the principle of uptake of MTT (3-(4,5-dimethylthiazol-2-yl)-2,5-diphenyl tetrazolium bromide), a tetrazolium salt, by the metabolically active cells where it is metabolized by active mitochondria into a blue colored formazan product that is read spectrophotometrically. MTT was dissolved in phosphate buffered saline with a pH of 7.4 to obtain an MTT concentration of 5 mg/ml; the resulting mixture was filtered through a 0.22 micron filter to sterilize and remove a small amount of insoluble residue. For each type of tumor cell, 20,000 to 50,000 cells were seeded in a 96-well culture plate and incubated with the combination in a CO2 incubator for 24 hours. […] After incubating for one hour, the plate was read spectrophotometrically at 540 nm and the percentage cytotoxicity calculated.

293 Kidney = experiment: MTT cytotoxicity assay, 293; format: cell-based; conditions: Homo sapiens, 24 h, read-out: ED50 values of cytotoxicity
Description: as §1

ECV304 cells = experiment: Inhibition of tube-like-structure (TLS) formation on Matrigel; format: cell-based; set-up: key: significant (++); marginal (+); no effect (−); conditions: 24 hours
Description: Matrigel (70 ul) was placed into each well of a 96-well culture plate at 4° C. and was allowed to polymerize by incubation at 37° C. for 30 min. ECV304 (1×10^4) cells were seeded on the Matrigel in 200 ul DMEM supplemented with 10% FBS. The compounds to be tested were added to marked wells at selected non-cytotoxic concentrations and incubated at 37° C. for 24 hours. Five different phase-contrast microscopic fields (4X) were viewed and tube-like structure formation was evaluated qualatively by observing formation of lumen (sprouting) and extent of formation of branches and loops by sprouts (intususception). The inhibition of TLS caused by the addition of the test compound was recorded as significant (++), marginal (+), or no effect (−) as compared to the control TLS formation. A summary of the results is given below in the form of a table indicating the concentrations tested.

U87MG Glioblastoma = experiment: MTT cytotoxicity assay, U87MG; format: cell-based; conditions: Homo sapiens, U-87 MG, 24 h, read-out: ED50 values of cytotoxicity
Description: as §1

DU145 Prostate = experiment: MTT cytotoxicity assay, DU145; format: cell-based; conditions: Homo sapiens, DU-145, 24 h, read-out: ED50 values of cytotoxicity
Description: as §1

L132 Lung = experiment: MTT cytotoxicity assay, L132; format: cell-based; conditions: Homo sapiens, 24 h, read-out: ED50 values of cytotoxicity
Description: as §1

PA 1 Ovary = experiment: MTT cytotoxicity assay, PA 1; format: cell-based; conditions: Homo sapiens, 24 h; PA 1 Ovarian; read-out: ED50 values of cytotoxicity
Description: as §1

Hep2 Larynx = experiment: MTT cytotoxicity assay, Hep2; format: cell-based; conditions: Homo sapiens, HEp-2, 24 h, read-out: ED50 values of cytotoxicity
Description: as §1

MOLT 4 Leukemia = experiment: MTT cytotoxicity assay, MOLT 4; format: cell-based; conditions: Homo sapiens, 24 h, read-out: ED50 values of cytotoxicity
Description: as §1

MCF7 breast = experiment: MTT cytotoxicity assay, MCF7; format: cell-based; conditions: Homo sapiens; for IC50: 24 h, MCF7 Breast, read-out: ED50 values of cytotoxicity
Description: as §1

[1] = tested on: Glyceraldehyde 3 phosphate dehydrogenase; experiment: Glyceraldehyde 3 phosphate dehydrogenase enzyme activity assay; format: biochemical
Description: The activity of Glyceraldehyde 3 phosphate dehydrogenase enzyme was assayed by the methods detailed earlier. (Krebs E, 1955, Methods in Enzymology, 1 407 and Velick S, 1955, Methods in Enzymology, 1, 401). To monitor the reaction, the increase in absorbance at 340 nm due to the formation of NADH from NAD was recorded at 15 seconds intervals, the values remaining almost linear for 3 minutes. The assay mixture was in a total volume of 1.5 ml containing 1.3 ml of Sodium pyrophosphate buffer (0.015M; pH 8.5), containing sodium arsenate (0.03M), 0.05 ml of NAD (7.5 mM), 0.05 ml of DTT (0.1M) and 0.05 ml of DL- glyceraldehyde 3 phosphate (7 mM). The enzyme was diluted 1:100 immediately prior to use in Sodium pyrophosphate buffer (0.015M) (pH 8.5) containing sodium arsenate (0.03M). The reaction was initiated by the addition of 0.05 ml of glyceraldehyde 3 phosphate dehydrogenase enzyme. The test mixture contained methyl glyoxal or its conjugates in concentrations ranging from 0.5 mM to 5 mM. Methyl glyoxal and its conjugates were dissolved in 2.5% ethanol and water. The control experiments were carried out in the absence of the enzyme or the substrate under identical conditions. One unit of activity of glyceraldehyde 3 phosphate dehydrogenase is defined as the amount of enzyme required to convert lumol of NAD to NADH per minute under conditions defined as above.

INT 407 Intestine = experiment: MTT cytotoxicity assay, INT 407; format: cell-based; conditions: Homo sapiens, 24 h, read-out: ED50 values of cytotoxicity
Description: as §1

PTC Colon = experiment: MTT cytotoxicity assay, PTC; format: cell-based; conditions: Homo sapiens, 24 h, read-out: ED50 values of cytotoxicity
Description: as §1

[2] = tested on: PTC (Colon) Tumor Xenografts; experiment: Antitumor activity on PTC (Colon) tumor xenografts in nude mice; format: in vivo, Balb/c athymic mice; conditions: 10 mg orally once a day for 15 days; at the end of treatment
Description: PTC (colon) tumor xenografts were initiated in Balb/c athymic mice by subcutaneous inoculation of a single cell suspension of PTC cells (15×10^6 cells/100 μL). […] The anti-tumor activity was monitored by measuring tumor volumes every fourth day and calculating volumes using the formula 0.4×W^2×L(W=smaller dia, L=larger dia,).

Miapaca2 Pancreas = experiment: MTT cytotoxicity assay, Miapaca2; format: cell-based; conditions: Homo sapiens, MIA PaCa-2, 24 h, read-out: ED50 values of cytotoxicity
Description: as §1

[3] = dosage level 2.5X (X=400 mg/kg B.Wt.)
[4] = dosage level 3.5X (X=400 mg/kg B.Wt.)
[5] = dosage level 5X (X=400 mg/kg B.Wt.)
[6] = dosage level 7.5X (X=400 mg/kg B.Wt.)
[7] = dosage level 10X (X=400 mg/kg B.Wt.)

With `CCOC(=O)C1CCC(=O)N1C(O)C(C)=O` (stereo not shown) [MGC-7, N-(1-Hydroxy-2-ketopropyl)-ethylpyroglutamate] the safe dose (Swiss albino mice) was 100 mg, the Mortality (Swiss albino mice; [3]) was 0/10 and the Mortality (Swiss albino mice; [4]) was 0/10. The Mortality (Swiss albino mice; [5]) was 0/10, the Mortality (Swiss albino mice; [6]) was 0/10 and the Mortality (Swiss albino mice; [7]) was 0/10.
With `CCCCOC(=O)C1CCC(=O)N1C(OC(C)=O)C(C)=O` (stereo not shown) [MGC-5, N-(1-Acetoxy-2-ketopropyl)-butylpyroglutamate] the IC50 (KB Oral) was 2000 ± 700 µM, the IC50 (293 Kidney) was 1900 ± 700 µM and the “TLS Inhibition (Qualitative)” value (ECV304 cells; 1.2 mM) was “+”.
In the case of `CCOC(=O)C1CCC(=O)N1C(OC(C)=O)C(C)=O` (stereo not shown) [MGC-8, N-(1-Acetoxy-2-ketopropyl)-ethylpyroglutarnate], the safe dose (Swiss albino mice) is reported as 100 mg, the Mortality (Swiss albino mice; [3]) is reported as 0/10 and the Mortality (Swiss albino mice; [4]) is reported as 0/10. For the same compound, the Mortality (Swiss albino mice; [5]) was 0/10, the Mortality (Swiss albino mice; [6]) was 0/10 and the Mortality (Swiss albino mice; [7]) was 0/10. It also gave an IC50 (U87MG Glioblastoma) of 1880 ± 700 µM, an IC50 (DU145 Prostate) of 1300 ± 300 µM and an IC50 (L132 Lung) greater than 5000 µM. It also gave an IC50 (KB Oral) of 1950 ± 800 µM, an IC50 (PA 1 Ovary) of 1800 ± 700 µM and an IC50 (Hep2 Larynx) of 2100 ± 600 µM. For the same compound, the IC50 (MOLT 4 Leukemia) was 2900 ± 500 µM, the IC50 (MCF7 breast) was 2400 ± 1200 µM and the “Percent Inhibition Of Glyceraldehyde 3 Phosphate Dehydrogenase Activity” value ([1]; 0.5 mM) was 32.8 ± 1.2%. The “Percent Inhibition Of Glyceraldehyde 3 Phosphate Dehydrogenase Activity” value ([1]; 1 mM) was 40.1 ± 2.2%, the “Percent Inhibition Of Glyceraldehyde 3 Phosphate Dehydrogenase Activity” value ([1]; 5 mM) was 38.2 ± 1.9% and the IC50 (INT 407 Intestine) was 550 ± 300 µM. The IC50 (PTC Colon) was 2750 ± 400 µM.
`CCCCOC(=O)C1CCC(=O)N1C(O)C(C)=O` (stereo not shown) [MGC-2, N-(1-Hydroxy-2-ketopropyl)-butylpyroglutamate] was tested, and the safe dose (Swiss albino mice) was 75 mg, the Mortality (Swiss albino mice; [3]) was 0/10 and the Mortality (Swiss albino mice; [4]) was 0/10. The Mortality (Swiss albino mice; [5]) was 0/10, the Mortality (Swiss albino mice; [6]) was 0/10 and the Mortality (Swiss albino mice; [7]) was 10/10. The IC50 (293 Kidney) was 2000 ± 800 µM and the “TLS Inhibition (Qualitative)” value (ECV304 cells; 1.2 mM) was “+”.
In the case of `COC(=O)C1CCC(=O)N1C(OC(C)=O)C(C)=O` (stereo not shown) [MGC-4, N-(1-Acetoxy-2-ketopropyl)-methylpyroglutamate], the safe dose (Swiss albino mice) is reported as 100 mg, the Mortality (Swiss albino mice; [3]) is reported as 0/10 and the Mortality (Swiss albino mice; [4]) is reported as 0/10. For the same compound, the Mortality (Swiss albino mice; [5]) was 0/10, the Mortality (Swiss albino mice; [6]) was 0/10 and the Mortality (Swiss albino mice; [7]) was 0/10. The “TLS Inhibition (Qualitative)” value (ECV304 cells; 1.2 mM) was “−” and the “average tumor volume as compared to average tumor volume of untreated control tumors” value [2] was 41%.
For `CC(=O)C=O` [Methylglyoxal, reference compound], the “Percent Inhibition Of Glyceraldehyde 3 Phosphate Dehydrogenase Activity” value ([1]; 0.5 mM) was 15 ± 4%, the “Percent Inhibition Of Glyceraldehyde 3 Phosphate Dehydrogenase Activity” value ([1]; 1 mM) was 18 ± 3.4% and the “Percent Inhibition Of Glyceraldehyde 3 Phosphate Dehydrogenase Activity” value ([1]; 5 mM) was 20 ± 4.0%. The “Glyceraldehyde 3 phosphate dehydrogenase enzyme activity inhibition (in words)” value ([1]; concentration ranging from 0.5 mM to 5 mM) was “inhibited significantly”, the “TLS Inhibition (Qualitative)” value (ECV304 cells; 0.5 mM) was “+” and the “TLS Inhibition (Qualitative)” value (ECV304 cells; 0.8 mM) was “+”. The “TLS Inhibition (Qualitative)” value (ECV304 cells; 1 mM) was “++” and the “average tumor volume as compared to average tumor volume of untreated control tumors” value [2] was 50%.
With `CC(=O)OC(C(C)=O)N1C(=O)CCC1C(=O)OCc1ccccc1` (stereo not drawn) [MGC-6, N-(l-acetoxy-2-ketopropyl)-benzylpyroglutamate] the safe dose (Swiss albino mice) was 75 mg, the Mortality (Swiss albino mice; [3]) was 0/10 and the Mortality (Swiss albino mice; [4]) was 0/10. For the same compound, the Mortality (Swiss albino mice; [5]) was 0/10, the Mortality (Swiss albino mice; [6]) was 0/10 and the Mortality (Swiss albino mice; [7]) was 10/10. For the same compound, the IC50 (U87MG Glioblastoma) was 4780 ± 600 µM, the IC50 (DU145 Prostate) was 1900 ± 1000 µM and the IC50 (L132 Lung) was 3800 ± 1000 µM. The IC50 (KB Oral) was 2950 ± 300 µM, the IC50 (Miapaca2 Pancreas) was 3900 ± 1000 µM and the IC50 (PA 1 Ovary) was 1400 ± 200 µM. For the same compound, the IC50 (Hep2 Larynx) was 1200 ± 200 µM, the IC50 (MOLT 4 Leukemia) was 1300 ± 300 µM and the IC50 (MCF7 breast) was greater than 5000 µM. The IC50 (293 Kidney) was 2900 ± 1000 µM, the “Percent Inhibition Of Glyceraldehyde 3 Phosphate Dehydrogenase Activity” value ([1]; 0.5 mM) was 28.3 ± 2.5% and the “Percent Inhibition Of Glyceraldehyde 3 Phosphate Dehydrogenase Activity” value ([1]; 1 mM) was 29.4 ± 3.0%. The “Percent Inhibition Of Glyceraldehyde 3 Phosphate Dehydrogenase Activity” value ([1]; 5 mM) was 30.1 ± 4.0%, the “TLS Inhibition (Qualitative)” value (ECV304 cells; 1.2 mM) was “−” and the IC50 (INT 407 Intestine) was greater than 5000 µM. For the same compound, the IC50 (PTC Colon) was 1600 ± 400 µM.
Work on `COC(=O)C1CCC(=O)N1C(O)C(C)=O` (stereo not shown) [MGC-1, N-(1-Hydroxy-2-ketopropyl)-methylpyroglutamate] yielded a cytotoxicity at 1000 µM (MCF7 breast; MCF7, 1.0 mM, read-out: Percent cytotoxicity) of 0% and a cytotoxicity at 5000 µM (MCF7 breast; MCF7, 5 mM, read-out: Percent cytotoxicity) of 12.9 ± 2.1%.
For `CC(=O)C(O)N1C(=O)CCC1C(=O)OCc1ccccc1` (stereo not shown) [MGC-3, N-(1-Hydroxy-2-ketopropyl)-benzylpyroglutamate], the IC50 (PA 1 Ovary) was 1800 ± 600 µM, the “TLS Inhibition (Qualitative)” value (ECV304 cells; 2 mM) was “+” and the “TLS Inhibition (Qualitative)” value (ECV304 cells; 2.5 mM) was “++”.
